Test results as given in ChEMBL document CHEMBL1201862, “PubChem BioAssay data set” (2004).
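Method: 48-hour compound exposure of cells in 96-well plates, five concentrations, linear interpolation of endpoints. GI50: concentration for 50% inhibition of growth.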 Calls of active or inactive are those of the source. Rule as the data show it: active = GI50 up to about 1.1 µM and inactive = higher.

Assays:
Assay in all cases: DTP human tumour cell line panel, 48 h
BT-549 = tested on: BT-549
COLO 205 = tested on: COLO 205
HCC 2998 = tested on: HCC 2998
HT-29 = tested on: HT-29
Hs-578T = tested on: Hs-578T
K562 = tested on: K562
KM12 = tested on: KM12
M14 = tested on: M14
MDA-N = tested on: MDA-N
MOLT-4 = tested on: MOLT-4
NCI-H460 = tested on: NCI-H460
NCI-H522 = tested on: NCI-H522
NCI/ADR-RES = tested on: NCI/ADR-RES
SF-295 = tested on: SF-295
SF-539 = tested on: SF-539
SK-MEL-2 = tested on: SK-MEL-2
SK-OV-3 = tested on: SK-OV-3
SN12C = tested on: SN12C
SR = tested on: SR
UACC-62 = tested on: UACC-62

SMILES	GI50 (BT-549)	GI50 (COLO 205)	GI50 (HCC 2998)	GI50 (HT-29)	GI50 (Hs-578T)	GI50 (K562)	GI50 (KM12)	GI50 (M14)	GI50 (MDA-N)	GI50 (MOLT-4)	GI50 (NCI-H460)	GI50 (NCI-H522)	GI50 (NCI/ADR-RES)	GI50 (SF-295)	GI50 (SF-539)	GI50 (SK-MEL-2)	GI50 (SK-OV-3)	GI50 (SN12C)	GI50 (SR)	GI50 (UACC-62)
CC(C)C(C/C=C1\CC(CO)(COC(=O)CC(C(C)C)C(C)C)OC1=O)C(C)C (stereo not given)	14.6 µM (inactive)	1.49 µM (inactive)	5.96 µM (inactive)	17.7 µM (inactive)	3.8 µM (inactive)	1.36 µM (inactive)	14.2 µM (inactive)	11.7 µM (inactive)	2.96 µM (inactive)	1.05 µM (active)	4.07 µM (inactive)	13.8 µM (inactive)	16 µM (inactive)	4.62 µM (inactive)	18.3 µM (inactive)	20.9 µM (inactive)	17.7 µM (inactive)	9.1 µM (inactive)	12.4 µM (inactive)	15.1 µM (inactive)
C/C=C(/COC(C)=O)C(=O)OC1C=C(C=O)C(C)(C)C=C1C (stereo not given)	> 100 µM (inactive)	> 100 µM (inactive)	> 100 µM (inactive)	> 100 µM (inactive)	> 100 µM (inactive)	43.5 µM (inactive)	> 100 µM (inactive)	> 100 µM (inactive)	> 100 µM (inactive)	> 10 µM (inactive)	> 100 µM (inactive)	> 100 µM (inactive)	> 100 µM (inactive)	> 100 µM (inactive)	> 100 µM (inactive)	> 100 µM (inactive)	> 100 µM (inactive)	> 100 µM (inactive)	27.5 µM (inactive)	> 100 µM (inactive)
COc1ccc2nc3ccc(OC)cc3c(SCCO)c2c1	31.3 µM (inactive)	23.6 µM (inactive)	> 75 µM (inactive)	17.3 µM (inactive)	15.4 µM (inactive)	9.91 µM (inactive)	22.5 µM (inactive)	77.3 µM (inactive)	9.62 µM (inactive)	3.03 µM (inactive)	68.9 µM (inactive)	4.56 µM (inactive)	27 µM (inactive)	49.2 µM (inactive)	20.7 µM (inactive)	30 µM (inactive)	54.5 µM (inactive)	26.4 µM (inactive)	19 µM (inactive)	38.5 µM (inactive)
C=CCn1c(-c2ccc(Cl)cc2Cl)cs/c1=N\c1c(C)n(C)n(-c2ccccc2)c1=O	12.9 µM (inactive)	12.3 µM (inactive)	15.3 µM (inactive)	10.1 µM (inactive)	16.1 µM (inactive)	2.51 µM (inactive)	13.5 µM (inactive)	11.3 µM (inactive)	8.55 µM (inactive)	4.32 µM (inactive)	12.9 µM (inactive)	12.2 µM (inactive)	6.71 µM (inactive)	6.9 µM (inactive)	14.8 µM (inactive)	14.7 µM (inactive)	5.04 µM (inactive)	13.4 µM (inactive)	5.36 µM (inactive)	10.4 µM (inactive)
CCOc1ccc(/N=N/c2ccc3cc(/C(C)=N/NC(=O)/C(C#N)=C\c4ccc(N(CCC#N)CCC#N)cc4)c(=O)oc3c2)cc1	> 10 µM (inactive)	> 10 µM (inactive)	> 10 µM (inactive)	> 10 µM (inactive)	> 10 µM (inactive)	> 10 µM (inactive)	> 10 µM (inactive)	> 10 µM (inactive)	> 10 µM (inactive)	> 10 µM (inactive)	> 10 µM (inactive)	> 10 µM (inactive)	> 10 µM (inactive)	> 10 µM (inactive)	> 10 µM (inactive)	> 10 µM (inactive)	> 10 µM (inactive)	> 10 µM (inactive)	> 10 µM (inactive)	> 10 µM (inactive)
COC(=O)c1c2c(cc3c1CC1(C3)Cc3ccc4c(c3C1=O)CCC4)CCC2 (stereo not given)	2.52 µM (inactive)	2.37 µM (inactive)	6.52 µM (inactive)	2.58 µM (inactive)	1.91 µM (inactive)	2.2 µM (inactive)	2.64 µM (inactive)	3.03 µM (inactive)	0.608 µM (active)	4.41 µM (inactive)	4.84 µM (inactive)	1.66 µM (inactive)	1.92 µM (inactive)	2.12 µM (inactive)	2.38 µM (inactive)	3.98 µM (inactive)	3.93 µM (inactive)	4.2 µM (inactive)	1.78 µM (inactive)	2.26 µM (inactive)
COc1cc(C(N)=O)cc(NC(=O)/C=C/c2ccccc2)c1OC	> 100 µM (inactive)	> 100 µM (inactive)	> 100 µM (inactive)	> 100 µM (inactive)	> 100 µM (inactive)	> 100 µM (inactive)	> 100 µM (inactive)	> 100 µM (inactive)	> 100 µM (inactive)	> 100 µM (inactive)	> 100 µM (inactive)	64.9 µM (inactive)	> 100 µM (inactive)	59.6 µM (inactive)	83 µM (inactive)	> 100 µM (inactive)	49.4 µM (inactive)	> 100 µM (inactive)	74.8 µM (inactive)	> 100 µM (inactive)
COc1ccc(C)c2c1N[C@](C)([C@]1(C)Nc3c(OC)ccc(C)c3C1=O)C2=O	> 100 µM (inactive)	> 100 µM (inactive)	> 100 µM (inactive)	> 100 µM (inactive)	39.3 µM (inactive)	> 100 µM (inactive)	76.9 µM (inactive)	> 100 µM (inactive)	> 100 µM (inactive)	> 100 µM (inactive)	> 100 µM (inactive)	> 100 µM (inactive)	> 100 µM (inactive)	41.4 µM (inactive)	> 100 µM (inactive)	> 100 µM (inactive)	> 100 µM (inactive)	> 100 µM (inactive)	> 100 µM (inactive)	> 100 µM (inactive)
CCN(CC)CCNc1c2ccccc2nc2cccc([N+](=O)[O-])c12	0.005 µM (active)	0.00461 µM (active)	0.0151 µM (active)	0.0122 µM (active)	0.017 µM (active)	0.0157 µM (active)	0.0352 µM (active)	0.00925 µM (active)	0.00179 µM (active)	0.0117 µM (active)	0.00622 µM (active)	0.00434 µM (active)	0.0112 µM (active)	0.00912 µM (active)	0.0224 µM (active)	0.0133 µM (active)	0.0343 µM (active)	0.0124 µM (active)	0.00434 µM (active)	0.0143 µM (active)
N=C1/C(=C/c2ccccc2)C(=O)N=C2SC=NN12	> 100 µM (inactive)	> 100 µM (inactive)	> 100 µM (inactive)	> 100 µM (inactive)	> 100 µM (inactive)	> 100 µM (inactive)	> 100 µM (inactive)	> 100 µM (inactive)	> 100 µM (inactive)	> 100 µM (inactive)	> 100 µM (inactive)	> 100 µM (inactive)	> 100 µM (inactive)	> 100 µM (inactive)	29.7 µM (inactive)	> 100 µM (inactive)	> 100 µM (inactive)	> 100 µM (inactive)	> 100 µM (inactive)	> 100 µM (inactive)
CC(=O)OCC(=O)O[C@@H]1[C@H]2[C@@H](OC(=O)c3ccccc3)[C@@H](C)C[C@]2(O)[C@H](OC(C)=O)[C@@]2(C)C[C@]1(OC(C)=O)C[C@H]1C(=O)C(C)(C)[C@@H](OC(C)=O)[C@@H]12	> 25 µM (inactive)	4.75 µM (inactive)	9.38 µM (inactive)	9.42 µM (inactive)	9.55 µM (inactive)	1.48 µM (inactive)	> 25 µM (inactive)	> 12.1 µM (inactive)	6.98 µM (inactive)	> 5.14 µM (inactive)	0.991 µM (active)	> 25 µM (inactive)	> 25 µM (inactive)	6.01 µM (inactive)	> 25 µM (inactive)	> 25 µM (inactive)	> 25 µM (inactive)	> 25 µM (inactive)	> 25 µM (inactive)	> 25 µM (inactive)
CC1=C[C@@H](C)C[C@]2(C)CC[C@H](O2)[C@]23CC[C@](C(=O)O)(C[C@H](O2)[C@@H]2O[C@@](C)(CC2=O)[C@@H](O)[C@H]2CC[C@@]4(CCC[C@@H](O4)[C@H](C)C(=O)O[C@H]4C[C@H]([C@]5(O)OCC[C@H](C)[C@@H]5O)O[C@H]4C=C1)O2)O3	> 7.83 µM (inactive)	> 8.55 µM (inactive)	> 10 µM (inactive)	> 10 µM (inactive)	> 3.78 µM (inactive)	> 10 µM (inactive)	> 10 µM (inactive)	> 9.38 µM (inactive)	> 8.95 µM (inactive)	> 10 µM (inactive)	> 10 µM (inactive)	> 7.71 µM (inactive)	> 10 µM (inactive)	> 5.86 µM (inactive)	> 5.82 µM (inactive)	> 6.85 µM (inactive)	> 10 µM (inactive)	> 8.55 µM (inactive)	> 10 µM (inactive)	> 9.02 µM (inactive)
Cc1ccc2c(O)cc(-c3cccc4ccccc34)nc2n1	0.652 µM (active)	0.022 µM (active)	0.0294 µM (active)	< 0.0116 µM (active)	0.043 µM (active)	< 0.01 µM (active)	0.0241 µM (active)	0.0247 µM (active)	< 0.01 µM (active)	0.0698 µM (active)	0.0342 µM (active)	< 0.0187 µM (active)	0.0186 µM (active)	0.0193 µM (active)	0.0216 µM (active)	0.0182 µM (active)	0.021 µM (active)	0.181 µM (active)	< 0.01 µM (active)	0.01 µM (active)
